According to patent publication EP2951180B1, “2,6,7,8 SUBSTITUTED PURINES AS HDM2 INHIBITORS” (Merck Sharp & Dohme Corp., priority 2013, dated 2014):

These molecules were tested against T1, HDM2 (Homo sapiens, UniProt Q00987) (assay: HDM2 FRET assay (inhibition of binding of FITC labeled p53-pocket peptide to HDM2)). Conditions: Table 9; read-out: FRET IC50.
T1 construct: Thioredoxin (N); made in house; host or cells: E. coli strain BL21(DE3)Rosetta
Outline: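 Signal is read as the 520/495 nm emission ratio and converted to percent inhibition; nonlinear sigmoidal regression yields IC50. The assay mixes HDM2 (0.5 nM), FITC-p53 peptide (3 nM) and Tb anti-His antibody (0.25 nM) at 0.1% DMSO.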

T1 sequence (Q00987 17-125): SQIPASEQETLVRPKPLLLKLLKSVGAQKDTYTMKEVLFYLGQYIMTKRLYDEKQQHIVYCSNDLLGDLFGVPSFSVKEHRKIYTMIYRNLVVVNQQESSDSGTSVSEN

Row | Structure (SMILES) | IC50
1 | C[C@@H](Nc1nc(C(=O)O)nc2nc(NC3CCCCC3)n(Cc3ccc(C(F)(F)F)cc3)c12)C1CCC1 [Example 9.12, 6-{[(1R)-1-cyclobutylethyl]amino}-8-(cyclohexylamino)-7-[4-(trifluoromethyl)benzyl]-7H-purine-2-carboxylic acid] | 7.65 nM
2 | C[C@@H](Nc1nc(C(=O)O)nc2nc(NCc3ccccc3)n(Cc3ccc(C(F)(F)F)cc3)c12)C1CCC1 [Example 9.13, 8-(benzylamino)-6-{[(1R)-1-cyclobutylethyl]amino}-7-[4-(trifluoromethyl)benzyl]-7H-purine-2-carboxylic acid] | 3.07 nM
3 | C[C@@H](Nc1nc(C(=O)O)nc2nc(N(C)Cc3ccccc3)n(Cc3ccc(C(F)(F)F)cc3)c12)C1CCC1 [Example 9.14, 8-[benzyl(methyl)amino]-6-{[(1R)-1-cyclobutylethyl]amino}-7-[4-(trifluoromethyl)benzyl]-7H-purine-2-carboxylic acid] | 5.62 nM
4 | C[C@@H](Nc1nc(C(=O)O)nc2nc(N(C)C3CCCCC3)n(Cc3ccc(C(F)(F)F)cc3)c12)C1CCC1 [Example 9.15, 6-{[(1R)-1-cyclobutylethyl]amino}-8-[cyclohexyl(methyl)amino]-7-[4-(trifluoromethyl)benzyl]-7H-purine-2-carboxylic acid] | 7.4 nM
5 | C[C@H](Nc1nc2nc(C(=O)O)nc(N[C@H](C)C3CCC3)c2n1Cc1ccc(C(F)(F)F)cc1)c1ccccc1 [Example 9.16, 6-{[(1R)-1-cyclobutylethyl]amino}-8-{[(1S)-1-phenylethyl]amino}-7-[4-(trifluoromethyl)benzyl]-7H-purine-2-carboxylic acid] | 1.91 nM
6 | C[C@@H](Nc1nc2nc(C(=O)O)nc(N[C@H](C)C3CCC3)c2n1Cc1ccc(C(F)(F)F)cc1)c1ccccc1 [Example 9.17] | 15.8 nM
7 | C[C@@H](Nc1nc(C(=O)O)nc2nc(N3CCOC(C)(C)C3)n(Cc3ccc(C(F)(F)F)cc3)c12)C1CCC1 [Example 9.18, 6-{[(1R)-1-cyclobutylethyl]amino}-8-(2,2-dimethylmorpholin-4-yl)-7-[4-(trifluoromethyl)benzyl]-7H-purine-2-carboxylic acid] | 32.7 nM
8 | C[C@@H](Nc1nc(C(=O)O)nc2nc(N3CC(C)(C)OC(C)(C)C3)n(Cc3ccc(C(F)(F)F)cc3)c12)C1CCC1 [Example 9.19, 6-{[(1R)-1-cyclobutylethyl]amino}-8-(2,2,6,6-tetramethylmorpholin-4-yl)-7-[4-(trifluoromethyl)benzyl]-7H-purine-2-carboxylic acid] | 12.4 nM
9 | CC1CN(c2nc3nc(C(=O)O)nc(N[C@H](C)C4CCC4)c3n2Cc2ccc(C(F)(F)F)cc2)CCO1 (stereo partly drawn) [Example 9.20, 6-{[(1R)-1-cyclobutylethyl]amino}-8-(2-methylmorpholin-4-yl)-7-[4-(trifluoromethyl)benzyl]-7H-purine-2-carboxylic acid] | 63.1 nM
10 | C[C@@H](Nc1nc(C(=O)O)nc2nc(Nc3ccccc3)n(Cc3ccc(C(F)(F)F)cc3)c12)C1CCC1 [Example 9.21, 6-{[(1R)-1-cyclobutylethyl]amino} -8-(phenylamino)-7-[4-(trifluoromethyl)benzyl]-7H-purine-2-carboxylic acid] | 9.44 nM
11 | C[C@@H](Nc1nc(C(=O)O)nc2nc(N3CCOC(c4ccccc4)C3)n(Cc3ccc(C(F)(F)F)cc3)c12)C1CCC1 (stereo partly drawn) [Example 9.22, 6-{[(1R)-1-cyclobutylethyl]amino}-8-(2-phenylmorpholin-4-yl)-7-[4-(trifluoromethyl)benzyl]-7H-purine-2-carboxylic acid] | 12.4 nM
12 | C[C@@H](Nc1nc(C(=O)O)nc2nc(N3CCOC(C(F)(F)F)C3)n(Cc3ccc(C(F)(F)F)cc3)c12)C1CCC1 (stereo partly drawn) [Example 9.23, 6-{[(1R)-1-cyclobutylethyl]amino}-7-[4-(trifluoromethyl)benzyl]-8-[2-(trifluoromethyl)morpholin-4-yl]-7H-purine-2-carboxylic acid] | 25.2 nM
13 | COCC1CN(c2nc3nc(C(=O)O)nc(N[C@H](C)C4CCC4)c3n2Cc2ccc(C(F)(F)F)cc2)CCO1 (stereo partly drawn) [Example 9.24, 6-{[(1R)-1-cyclobutylethyl]amino}-8-[2-(methoxymethyl)morpholin-4-yl]-7-[4-(trifluoromethyl)benzyl]-7H-purine-2-carboxylic acid] | 72.9 nM
14 | C[C@@H](Nc1nc(C(=O)O)nc2nc(N3CCOC4(CCCC4)C3)n(Cc3ccc(C(F)(F)F)cc3)c12)C1CCC1 [Example 9.25, 6-{[(1R)-1-cyclobutylethyl]amino}-8-(6-oxa-9-azaspiro[4.5]dec-9-yl)-7-[4-(trifluoromethyl)benzyl]-7H-purine-2-carboxylic acid] | 19.4 nM
15 | C#CCC1CN(c2nc3nc(C(=O)O)nc(N[C@H](C)C4CCC4)c3n2Cc2ccc(C(F)(F)F)cc2)CCO1 (stereo partly drawn) [Example 9.26, 6-{[(1R)-1-cyclobutylethyl]amino}-8-(2-prop-2-yn-1-ylmorpholin-4-yl)-7-[4-(trifluoromethyl)benzyl]-7H-purine-2-carboxylic acid] | 34.2 nM
16 | C[C@@H](Nc1nc(C(=O)O)nc2nc(N3C[C@H]4C[C@@H]3CO4)n(Cc3ccc(C(F)(F)F)cc3)c12)C1CCC1 [Example 9.27, 6-{[(1R)-1-cyclobutylethyl]amino}-8-[(1R,4R)-2-oxa-5-azabicyclo [2.2.1]hept-5-yl]-7-[4-(trifluoromethyl)benzyl]-7H-purine-2-carboxylic acid] | 23.7 nM
17 | C[C@@H](Nc1nc(C(=O)O)nc2nc(N3CCOC[C@@H]3C)n(Cc3ccc(Cl)cc3)c12)C1CC1 [Example 9.28, 7-(4-chlorobenzyl)-6-{[(1R)-1-cyclopropylethyl]amino}-8-[(3S)-3-methylmorpholin-4-yl]-7H-purine-2-carboxylic acid] | 143 nM
18 | C[C@@H](Nc1ncnc2nc(N[C@@H](CO)c3ccccc3)n(Cc3ccc(C(F)(F)F)cc3)c12)C1CCC1 [Example 9.29] | 4470 nM
19 | CC(Nc1nc2nc(C(=O)O)nc(N[C@H](C)C3CCC3)c2n1Cc1ccc(C(F)(F)F)cc1)c1cccnc1 (stereo partly drawn) [Example 9.30, 6-{[(1R)-1-cyclobutylethyl]amino}-8-[(1-pyridin-3-ylethyl)amino]-7-[4-(trifluoromethyl)benzyl]-7H-purine-2-carboxylic acid] | 3.05 nM
20 | CC(Nc1nc2nc(C(=O)O)nc(N[C@H](C)C3CCC3)c2n1Cc1ccc(C(F)(F)F)cc1)c1ccccn1 (stereo partly drawn) [Example 9.31, 6-{[(1R)-1-cyclobutylethyl]amino}-8-[(1-pyridin-2-ylethyl)amino]-7-[4-(trifluoromethyl)benzyl]-7H-purine-2-carboxylic acid] | 0.526 nM
21 | C[C@@H](Nc1nc(C(=O)O)nc2nc(N3CCOC[C@@H]3C)n(Cc3ccc(C(F)(F)F)cc3)c12)C1CCC1 [Example 9.32, 6-{[(1R)-1-cyclobutylethyl]amino}-8-[(3S)-3-methylmorpholin-4-yl]-7-[4-(trifluoromethyl)benzyl]-7H-purine-2-carboxylic acid] | 15.2 nM
22 | C[C@@H]1COCCN1c1nc2nc(C(=O)O)nc(N[C@H](C)C3CCC3)c2n1Cc1ccc(C(F)(F)F)cc1 [Example 9.35] | 7.17 nM
23 | CC[C@H](Nc1nc2nc(C(=O)O)nc(N[C@H](C)C3CCC3)c2n1Cc1ccc(C(F)(F)F)cc1)c1ccccc1 [Example 9.36, 6-{[(1R)-1-cyclobutylethyl]amino}-8-{[(1S)-1-phenylpropyl]amino}-7-[4-(trifluoromethyl)benzyl]-7H-purine-2-carboxylic acid] | 0.862 nM
